We go through six compounds from article PMC9905731, “PIN1 and PIN4 inhibition via parvulin impeders Juglone, PiB, ATRA, 6,7,4′-THIF, KPT6566, and EGCG thwarted hepatitis B virus replication” (Frontiers in Microbiology, 2023).

Data set [1] is described as follows: MTT cell cytotoxicity assay. The format is cell-based. Particulars: human, Huh7, HepAD38, HepG2, HepG2.2.15 cells, cell line not stated, read-out: 50% cytotoxic concentration (CC50). The protocol:
Since PIN1 and PIN4 were highly expressed in HCC cells, we speculated that the inhibition of parvulins via Juglone, PiB, ATRA, 6,7,4′-THIF, KPT6566, and EGCG might affect HBV replication (Figure 2A). The optimum dosage was determined in several HCC cell lines. Compared to mock or solvent-treated 10, 20, 30, 50, or 100 μM, drug-treated cell viabilities were determined by the MTT assay in Huh7, HepAD38, HepG2, and HepG2.2.15 cells (Figure 2B). The data from triplicate experiments were used to examine 50% cytotoxic concentration (CC50) of Juglone, PiB, ATRA, 6,7,4′-THIF, KPT6566, and EGCG via the GraphPad Prism software (Figure 2C). The CC50 values for Juglone and PiB were 30 and 40 μM, respectively. […] However, KPT6566 and EGCG depicted 45 and 80 μM as CC50 values, respectively. We optimized the effects of Juglone and PiB parvulin inhibitors in diverse HBV replicating HCC cell lines at 20 μM concentration. In addition, 30 μM concentrations were used to determine the effects of ATRA, 6,7,4′-THIF, and KPT6566 on HBV replication. While a 40 μM concentration of EGCG was optimized for determining the effects on HBV replication in multiple HCC cell lines.
Figure 2 MTT assay to measure the cytotoxicity of parvulin inhibitors (Juglone, PiB, ATRA, 6,7,4′-THIF, KPT6566, and EGCG). (A) The chemical structures of parvulin inhibitors including Juglone, PiB, ATRA, 6,7,4′-THIF, KPT6566, and EGCG are shown. (B) Huh7, HepAD38, HepG2, and HepG2.2.15 cells were exposed to varying concentrations (10 μM, 20 μM, 30 μM, 50 μM, and 100 μM) of inhibitors Juglone, PiB, ATRA, 6,7,4′-THIF, KPT6566, and EGCG for 48 h and values were determined via MTT assay. (C) The concentrations of Juglone, PiB, ATRA, 6,7,4′-THIF, KPT6566, and EGCG at which cell viability was reduced to 50% (CC50) to that of the control (cells treated by the solvent) were determined. TEXT PRINTED IN THE PICTURE: (C) Juglone: CC50: 30 | (C) PiB: CC50: 40 | (C) ATRA: CC50: 45 | (C) 6,7,4 THIF: CC50: 50 | (C) KPT6566: CC50: 45 | (C) EGCG: CC50: 80 DOUBTS OF THE COPYIST ABOUT THIS PICTURE: All CC50 labels in panel C are printed small and blurred, and no unit is printed with them / Juglone, CC50: 30 or 50 / ATRA, CC50: 45 or 46 / 6,7,4 THIF, CC50: 50 or 60 / KPT6566, CC50: 45 or 46 / EGCG, CC50: 80 or 30, first digit partly overlapped by an error bar
The cytotoxic effects of parvulin inhibitors (Juglone, PiB, ATRA, 6,7,4′-THIF, KPT6566, and EGCG) via MTT (3-[4,5-dimethylththiazol-2-yl]-2,5-diphenyltetrazolium bromide) assay were determined in Huh7, HepAD38, HepG2, and HepG2.2.15 cell lines. The cells were grown in 96-well microplates and incubated with serial dilutions of Juglone, PiB, ATRA, 6,7,4′-THIF, KPT6566, or EGCG for 48 h at 37°C. The cellular viabilities were examined after replacing the culture medium with 100 μl of MTT in DMEM. After 3 h, 100 μl of DMSO was added to dissolve the formazan of MTT. The absorbance value was measured at 570 nm via plate reader. Afterward, the concentrations of Juglone, PiB, ATRA, 6,7,4′-THIF, KPT6566, and EGCG at which cell viability was reduced to 50% (CC50) to that of the control were determined.

In data set [2] the test system is HBV replication in Huh7, HepAD38, HepG2, and HepG2.2.15 cells. The format is cell-based, hepatitis B virus.
The test system of a further data set is HBV cccDNA. As to the kind of experiment: HBV cccDNA levels by Hirt extraction and Southern blotting. The format is cell-based, hepatitis B virus. Conditions: HBV-infected HepG2-hNTCP-C9 cells, 10 days; 20 μM Juglone or PiB, 30 μM ATRA, 6,7,4′-THIF or KPT-6566, 40 μM EGCG. On the procedure:
Mock-infected HepG2-hNTCP-C9 cells (lane 1) or HBV-infected HepG2-hNTCP-C9 cells (lanes 2–3) were treated with solvent (lane 2) or 20 μM Juglone, 20 μM PiB, 30 μM ATRA, 30 μM 6,7,4′-THIF, 30 μM KPT6566, or 40 μM EGCG (lane 3) for 10 days. HBV cccDNA levels were determined by the Hirt extraction method, as described previously ([Saeed et al., 2019]). Data are presented from three independent experiments.
HBV cccDNA synthesis was examined using the protein-free Hirt cccDNA extraction method. Briefly, HBV-infected PIN1 or PIN4 KD cells at approximately 100% confluency were incubated for 10 days, lysed with 10 mM EDTA and 10 mM Tris–HCl [pH 7.5] containing 0.6% SDS-TE buffer, treated for 16 h by adding 5 M NaCl to the final concentration of 1 M, and precipitated by centrifugation for 30 min at 14,500 × g. The supernatants were subjected to multiple phenol extractions (two times) followed by cccDNA extraction via phenol/chloroform. The supernatant containing cccDNA was precipitated by ethanol and furthermore analyzed by Southern blotting. The HBV cccDNA ChIP was performed using cccDNA-specific primers and analyzed by PCR (GeneAmp 2,700, Applied Biosystems), as described previously ([Bichko et al., 1985]; [Piracha et al., 2018], [2020]; [Saeed et al., 2019], [2021]). From the clinical specimens, HBV cccDNA levels were examined, as described previously ([Zhang et al., 2017]), using 251F 5′-GAC TYG TGG TGG ACT TCT C-3′ and 1190R 5′-TCA GCA AAY ACT YGG CA-3′ set of primers.

Where [3] appears, read: 72 h, 20 μM Juglone or PiB, 30 μM ATRA, 6,7,4′-THIF or KPT-6566, 40 μM EGCG, vs solvent.

The structures appear in SMILES notation. Read-outs that look alike come from different tables or passages of the source.

As to `O=c1c(-c2ccc(O)cc2)coc2cc(O)c(O)cc12` [6,7,4′-THIF, 6,7-dihydroxy-3-(4-hydroxyphenyl)-4H-chromen-4-one], the CC50 at 48 h in data set [1] is 50 µM. Moreover, in data set [2] (setting [3]), the “HBV RNA levels / HBV transcription (Northern blotting)” value (shortened to “HBV RNA levels / HBV transcription”) is “significantly aborted”; the “HBc expression, core particle synthesis and HBV DNA levels” value (from here on “HBc expression”) is “significantly aborted”. Besides, in the data set on HBV cccDNA, the “HBV cccDNA levels” value is listed as “without affecting HBV cccDNA levels”.
As for `CC1=C(/C=C/C(C)=C/C=C/C(C)=C/C(=O)O)C(C)(C)CCC1` [ATRA, All-trans-retinoic acid], the CC50 at 48 h in data set [1] was found to be 45 µM. Moreover, in data set [2], the “HBV RNA levels / HBV transcription” value is “reduced”; the “HBc expression” value is recorded as “reduced”. For the same compound, in the data set with HBV cccDNA, the “HBV cccDNA levels” value is listed as “without affecting HBV cccDNA levels”.
Take `O=C(O[C@@H]1Cc2c(O)cc(O)cc2O[C@@H]1c1cc(O)c(O)c(O)c1)c1cc(O)c(O)c(O)c1` [EGCG, Epigallocatechin gallate]: the CC50 at 48 h in data set [1] worked out at 80 µM. In data set [2] (setting [3]), the “HBV RNA levels / HBV transcription” value was “lower levels”; the “HBc expression” value is “reduced significantly”. Also, the “HBV cccDNA levels” value with HBV cccDNA is reported as “without affecting HBV cccDNA levels”.
On the same counts, the results for `O=C1C=CC(=O)c2c(O)cccc21` [Juglone, 5-hydroxyl-1,4-naphthoquinone] are 30 µM, “significantly decreased”, “dramatically reduced” and “without affecting HBV cccDNA levels”.
Consider `CC(C)(C)c1ccc(S(=O)(=O)N=C2C=C(SCC(=O)O)C(=O)c3ccccc32)cc1` [KPT6566, 2-[[4-[[[4-(1,1-dimethylethyl)phenyl]sulfonyl]imino]-1,4-dihydro-1-oxo-2-naphthalenyl]thio] acetic acid], for which, in data set [1], the CC50 at 48 h was found to be 45 µM. In data set [2] (setting [3]), the “HBV RNA levels / HBV transcription” value is reported as “restricted”; the “HBc expression” value was “restricted”. The “HBV cccDNA levels” value in the data set on HBV cccDNA is “without affecting HBV cccDNA levels”.
As for `CCOC(=O)CN1C(=O)c2ccc3c4c(ccc(c24)C1=O)C(=O)N(CC(=O)OCC)C3=O` [PiB, 1,3,6,8-tetrahydro-1,3,6,8-tetraoxo-benzo [lmn][3,8] phenanthroline-2,7-diacetic acid, 2,7-diethyl ester], the CC50 at 48 h in data set [1] is 40 µM. In data set [2] (setting [3]), the “HBV RNA levels / HBV transcription” value is “significantly reduced”; the “HBc expression” value is “notably abrogated”. Further, in the data set on HBV cccDNA, the “HBV cccDNA levels” value was “without affecting HBV cccDNA levels”.
